In patent publication US6221863A, “3,4-dihydro-2H-benzo[1,4]oxazine derivatives” (American Home Products Corp., priority 1999, dated 2001):
Like-named read-outs stand apart in the source and are kept apart here.

Experiments:
[1] = biological target: T1, human 5-HT1A receptor (Homo sapiens, UniProt P08908); test: 5-HT1A receptor binding, [3H]8-OH-DPAT displacement in membranes of CHO cells expressing the human receptor; conditions: 5-HT1A.CHO membranes; for Ki: [3H]8-OH-DPAT 1.5 nM, 30 min, room temperature; for inhibition at 0.1 µM: at .1 μM, [3H]8-OH-DPAT, read-out: 5-HT1A (% Inh. @ .1 μM)
T1 construct: expressed in transfected cells
T1 sequence (P08908 1-422): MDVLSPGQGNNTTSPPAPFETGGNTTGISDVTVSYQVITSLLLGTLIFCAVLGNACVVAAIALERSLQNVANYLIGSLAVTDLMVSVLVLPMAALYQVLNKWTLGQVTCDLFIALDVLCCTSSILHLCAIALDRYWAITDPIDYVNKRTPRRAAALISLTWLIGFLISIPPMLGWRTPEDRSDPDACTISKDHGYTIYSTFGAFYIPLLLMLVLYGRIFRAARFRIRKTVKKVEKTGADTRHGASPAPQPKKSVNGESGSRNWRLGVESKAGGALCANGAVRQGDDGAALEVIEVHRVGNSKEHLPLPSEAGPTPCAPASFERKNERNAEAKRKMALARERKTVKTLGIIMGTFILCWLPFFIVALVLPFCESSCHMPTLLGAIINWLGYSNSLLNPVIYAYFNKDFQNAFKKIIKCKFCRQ
Protocol: (§1) The PCR cloning of the human ^5 -HT1A receptor subtype from a human genomic library has been described previously by Chanda et al., Mol. Pharmacol., 43:516 (1993). A stable Chinese hamster ovary cell line expressing the human S-HT1A receptor subtype (5-HT1A.CHO cells) was employed throughout this study. Cells were maintained in DMEM supplemented with 10% fetal calf serum, non-essential amino acids and penicillin/ streptomycin.
Cells were grown to 95-100% confluency as a monolayer before membranes were harvested for binding studies. Cells were gently scraped from the culture plates, transferred to centrifuge tubes, and washed twice by centrifugation (2000 rpm for 10 min., 4° C.) in buffer (50 mM Tris; pH 7.5). The resulting pellets were aliquoted and placed at -80.C. On the day of assay, the cells were thawed on ice, and resuspended in buffer. Studies were conducted using [^3 H]8-OH-DPAT as the radioligand. The binding assay was performed in 96 well mnicrotiter plates in a final total volume of 250 μL of buffer. Comparison experiments were performed by using 7 concentrations of unlabelled drug and a final ligand concentration of 1.5 nM . Non-specific binding was determined in the presence of 10 μM 5HT. Saturation analysis was conducted by using [^3 H]8-OH-DPAT at concentrations ranging from 0.3-30 nM. Following a 30 minute incubation at room temperature, the reaction was terminated by the addition of ice cold buffer and rapid filtration using a M-96 Brandel Cell Harvester Gaithersburg, Md.) through a GF/B filter presoaked for 30 minutes in 0.5% polyethyleneimine.

[2] = biological target: T1, human 5-HT1A receptor; test: [35S]-GTPγS binding in 5-HT1A cloned receptor membrane fragments; type: biochemical; conditions: [35S]GTPγS 1 nM, 30 min, 30° C.; excess 8-OH-DPAT defines maximum agonist response
Description: as §1
The [^35 S]-GTPγS binding assay was similar to that used by Lazareno and Birdsall, Br. J. Pharmacol. 109:1120 (1993). Briefly, 5-HT1A cloned receptor membrane fragments (as used for 5-H1A receptor binding assays) were stored at -70° C. until needed. When needed, membranes were rapidly thawed, centrifuged at 40,000×g for 10 minutes and resuspended at 4° C. for 10 minutes in assay buffer (25 mM HEPES, 3 mM MgCl2, 100 mnM NaCl, 1 mM EDTA, 10 uM GDP, […] DTT, pH 8.0). These membranes were then incubated for 30 min at 30° C. with [^35 S]GTPgS (1 nM) in the presence of vehicle, test compound (one to eight concentrations), or excess 8-OH-DPAT to define maximum agonist response. All reactions are terminated by the addition of ice cold Tris buffer followed by rapid filtration using a Tom Tech® filtration device to separate bound from free [^35 S]GTPgS. Agonists produce an increase in the amount of [^35 S]GTPgS bound whereas antagonists produce no increase in binding. Bound radioactivity was counted and analyzed as above.

[3] = biological target: T2, serotonin transporter (Rattus norvegicus, UniProt P31652); test: serotonin transporter (ST) binding, 3H-paroxetine displacement in rat frontal cortical membranes; set-up: species or system rat (male Sprague-Dawley)
T2 construct: frontal cortical membranes prepared from male Sprague-Dawley rats; from tissue; host or cells: frontal cortical membranes of male Sprague-Dawley rats
Protocol: A protocol similar to that used by Cheetham et al., Neuropharmacol. , 32:737 (1993) was used to determine the affinity of compounds for the serotonin transporter. Briefly, frontal cortical membranes prepared from male Sprague-Dawley rats were incubated with ^3 H-paroxetine (0.1 nM) for 60 min at 25° C. All tubes also contained either vehicle, test compound (one to eight concentrations), or a saturating concentration of fluoxetine (10 μM) to define […]. All reactions were terminated by the addition of ice cold Tris buffer followed by rapid filtration using a Tom Tech filtration device to separate bound from free ^3 H-paroxetine. Bound radioactivity was quantitated using a Wallac 1205 Beta Plate® counter. Nonlinear regression analysis was used to determine IC50 values which were converted to Ki values using the method of Cheng and Prusoff, Biochem. Pharmacol., 22:3099 (1973); Ki=IC50/((Radioligand conc.)/(1+KD)).

[4] = 3H-paroxetine 0.1 nM, 60 min, 25° C., rat frontal cortical membranes, IC50 converted to Ki (Cheng-Prusoff), read-out: ST (Ki)

T2 sequence (P31652 whole entry): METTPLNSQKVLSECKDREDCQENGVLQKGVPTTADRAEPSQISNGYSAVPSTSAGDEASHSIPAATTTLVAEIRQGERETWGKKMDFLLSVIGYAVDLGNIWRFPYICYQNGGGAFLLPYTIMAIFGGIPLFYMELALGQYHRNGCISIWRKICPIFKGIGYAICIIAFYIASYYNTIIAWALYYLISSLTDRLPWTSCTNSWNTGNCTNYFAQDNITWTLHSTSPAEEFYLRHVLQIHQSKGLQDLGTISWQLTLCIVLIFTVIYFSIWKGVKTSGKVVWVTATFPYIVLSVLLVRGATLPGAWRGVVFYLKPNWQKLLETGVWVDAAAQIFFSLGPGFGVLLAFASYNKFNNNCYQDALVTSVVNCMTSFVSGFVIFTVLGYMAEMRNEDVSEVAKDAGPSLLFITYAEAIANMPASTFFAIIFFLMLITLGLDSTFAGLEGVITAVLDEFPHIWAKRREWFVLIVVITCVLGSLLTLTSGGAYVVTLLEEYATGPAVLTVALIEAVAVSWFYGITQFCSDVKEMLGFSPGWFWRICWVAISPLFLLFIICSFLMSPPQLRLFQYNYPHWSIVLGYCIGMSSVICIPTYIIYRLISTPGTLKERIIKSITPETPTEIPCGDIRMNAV

SMILES | Ki [1] [nM] | Emax [2] [%] | Ki [3] [nM] | Ki [3, 4] [nM] | inhibition at 0.1 µM [1] [%]
COc1cccc2c1OC(CN1CC=C(c3c[nH]c4ccc(F)cc34)CC1)CN2 (centres unmarked) [Example 1, 2-[4-(5-Fluoro-1H-indol-3-yl)-3,6-dihydro-2H-pyridin-1-ylmethyl]-8-methoxy-3,4-dihydro-2H-benzo[1,4]oxazine] | 155 | 10 | 3.7 |  | 
COc1cccc2c1OC(CN1CC=C(c3c[nH]c4ccc(F)cc34)CC1)CN2C (centres unmarked) [Example 2, 2-[4-(5-Fluoro-1H-indol-3-yl)-3,6-dihydro-2H-pyridin-1-ylmethyl]-8-methoxy-4-methyl-3,4-dihydro-2H-benzo[1,4]oxazine] | 140 | 97 | 8.5 |  | 
CCN1CC(CN2CC=C(c3c[nH]c4ccc(F)cc34)CC2)Oc2c(OC)cccc21 (centres unmarked) [Example 3, 2-[4-(5-Fluoro-1H-indol-3-yl)-3,6-dibydro-2H-pyridin-1-ylmetbyl]-8-methoxy-4-ethyl-3,4-dihydro-2H-benzo[1,4]oxazine] | 137 | 62 | 12 |  | 
CCCN1CC(CN2CC=C(c3c[nH]c4ccc(F)cc34)CC2)Oc2c(OC)cccc21 (centres unmarked) [Example 4, 2-[4-(5-Fluoro-1H-indol-3-yl)-3,6-dihydro-2H-pyridin-1-ylmethyl]-8-methoxy-4-propyl-3,4-dihydro-2H-benzo[1,4]oxazine] | 363 | 100 | 20 |  | 
C1=C(c2c[nH]c3ccccc23)CCN(CC2CNc3ccccc3O2)C1 (centres unmarked) [Example 5, 2-[4-(1H-Indol-3-yl)-3,6-dihydro-2H-pyridin-1-ylmethyl]-3,4-dihydro-2H-benzo[1,4]oxazine] | 805 | 57 |  | 0.74 | 
C1=C(c2c[nH]c3ncccc23)CCN(CC2CN(c3ccccc3)c3ccccc3O2)C1 (centres unmarked) [Example 6, 4-Phenyl-2-[4-(1H-pyrrolo[2,3,b]pyridin-3yl)-3,6-dihydro-2H-pyridin-1-ylmethyl]-3,4-dihydro-2H-benzo[1,4]oxazine] |  | 0 | 106 |  | 20
COc1cccc2c1OC(CN1CC=C(c3c[nH]c4ccc(F)cc34)CC1)CN2c1ccc(C(F)(F)F)cc1 (centres unmarked) [Example 7, 2-[4-(5-Fluoro-1H-Indol-3-yl)-3,6-dihydro-2H-pyridin-1-ylmethyl]-8-methoxy-4-(4-trifluoromethyl-phenyl)-3,4-dihydro-2H-benzo[1,4]oxazine] |  |  |  | 505 | 0
